Earlier results, collected in patent publication US20240115654A1, “INTRAVENOUS ADMINISTRATION OF ENGINEERED ANTIMICROBIAL AMPHIPHILIC PEPTIDES” (priority 2021, published 2024).

Tested on: Escherichia coli ATCC 25922 (QC)
Conditions: E. coli ATCC 25922; established CLSI QC range; cited from earlier work

For Colistin [reference compound], the “MIC QC range (in parentheses under the MIC)” value is given as “(0.25-2) μg/mL”.
